Source: US20200063169A1, “METHODS AND COMPOSITIONS FOR THE PRODUCTION OF LIPIDS” (THE UNIVERSITY OF BRITISH COLUMBIA, priority 2017, published 2020)

Experiments:
[1] = tested on: FcrA; test: FcrA activity assays (spectrophotometric, NADPH oxidation / DTNB); assay type: biochemical, Rhodococcus jostii RHA1; settings: for Specific Activity: 5 μM acyl-CoA, 200 μM NADPH, pH 7.0, 25° C.
Procedure: FcrA activity was evaluated using two spectrophotometric assays. Assays were performed at 25° C. in 1 mL 20 mM MOPS, 80 mM NaCl, pH 7.0 (I=0.1 M) containing 5 μM acyl-CoA and 200 μM NADPH. Reactions were initiated by the addition of FcrA to a final concentration of 0.5 to 2 μM. In one assay, the oxidation of NADPH was followed at 340 nm (E=6.3 mM mM^−1 cm^−1 [43]). In the second assay, the reaction mixture also contained 0.1 mg/mL DTNB, and the formation of NTB^2− was followed at 412 nm (E=14.15 mM^−1 cm^−1 for NTB^2−[44]). Reaction rates were calculated from progress curves using Cary WinUV Kinetics Application (Agilent). The pH-dependence of the reaction was evaluated using the DTNB assay and a series of 20 mM Good's buffers (MES, MOPS, HEPPS, or TAPS), 80 mM NaCl (I=0.1 M), pH 6 to 9.
Because related two-domain enzymes completely reduce acyl-CoAs to fatty alcohols and have been used in biotechnology applications, further efforts were focused on exploring the function of FcrA, To investigate the activity of FcrA, it was first produced as a C-terminally His-tagged protein in RHA1 and purified to greater than 95% apparent homogeneity (FIG. 4A). The molecular mass of FcrA-His6 was 73627 Da, which corresponds to the mass of the protein (73758 Da) less the N-terminal methionine (131 Da). Then, to evaluate the ability of FcrA to catalyze the formation of fatty alcohols, 1.4 μM FcrA was incubated with 400 μM NADPH and 100 μM oleoyl-CoA in 1 mL 20 mM Tris-HCl, pH 7.0, 50 mM NaCl for 20 h at room temperature. The reaction was quenched with 1 mL saturated NaCl and 100 μM of tetradecanol was added as a standard. […] No alcohol was detected in control reactions in which FcrA was omitted. […] As with previously characterized FARs, activity was maximal at pH 7.0. […] Among the tested substrates, FcrA had highest specific activity for stearoyl-CoA (C18-CoA), reducing it at a rate of 45±3 nmol/mg·min. The specific activity of FcrA dropped off with decreasing chain length of the acyl-CoA substrate (Table 2).

[2] = tested on: FcrA; test: FcrA fatty alcohol formation, reaction products analysed by GC/MS; assay type: biochemical, Rhodococcus jostii RHA1; settings: 1.4 μM FcrA, 400 μM NADPH, 100 μM oleoyl-CoA, pH 7.0, 20 h, room temperature
Procedure: To analyze fatty alcohols produced in vitro, quenched reactions of 2 mL were extracted with 5 mL of 2:1 chloroform:methanol (v/v). The organic phase was collected, washed once with 1:1 H2O:methanol, and three times with H2O. The organic phase was removed and dried under nitrogen stream. The extract was suspended in pyridine and derivatized with […] for 1 h at 60° C. Derivatized extracts were analyzed by gas chromatography-mass spectrometry (GC/MS) as described below.
Analyses were performed using an Agilent 6890n gas chromatograph system fitted with an HP-5 MS 30 m×0.25 mm capillary column (Hewlett-Packard) and an Agilent 5973n mass-selective detector. […] WEs were further identified by comparison to an authentic stearyl stearate standard and were quantified using a standard curve generated using palmityl myristate (Nu-Chek Prep).
Because related two-domain enzymes completely reduce acyl-CoAs to fatty alcohols and have been used in biotechnology applications, further efforts were focused on exploring the function of FcrA, To investigate the activity of FcrA, it was first produced as a C-terminally His-tagged protein in RHA1 and purified to greater than 95% apparent homogeneity (FIG. 4A). […] No alcohol was detected in control reactions in which FcrA was omitted. […]

SMILES	Specific Activity ([1]; FcrA with acyl-CoA substrate)	further results
CCCCCCCCCCCC(=O)SCCNC(=O)CCNC(=O)[C@H](O)C(C)(C)COP(=O)(O)OP(=O)(O)OC[C@H]1O[C@@H](n2cnc3c(N)ncnc32)[C@H](O)[C@@H]1OP(=O)(O)O [Lauroyl-CoA]	1.5 ± 0.3 nmol/min/(mg protein)	
NC(=O)C1=CN([C@@H]2O[C@H](COP(=O)(O)OP(=O)(O)OC[C@H]3O[C@@H](n4cnc5c(N)ncnc54)[C@H](O)[C@@H]3O)[C@@H](O)[C@H]2O)C=CC1 [NADH]		FcrA activity with cofactor in place of NADPH ([1]; NADPH substituted with NADH): no activity was detected
CCCCCCCC/C=C\CCCCCCCC(=O)SCCNC(=O)CCNC(=O)[C@H](O)C(C)(C)COP(=O)(O)OP(=O)(O)OC[C@H]1O[C@@H](n2cnc3c(N)ncnc32)[C@H](O)[C@@H]1OP(=O)(O)O [Oleoyl-CoA]	41 ± 1 nmol/min/(mg protein)	rate of reduction by FcrA compared with stearoyl-CoA ([1]; monounsaturated acyl-CoA substrate): reduced at a similar rate to stearoyl-CoA; conversion of acyl-CoA to fatty alcohol by FcrA [2]: converted oleoyl-CoA to oleyl alcohol
CCCCCCCCCCCCCCCC(=O)SCCNC(=O)CCNC(=O)[C@H](O)C(C)(C)COP(=O)(O)OP(=O)(O)OC[C@H]1O[C@@H](n2cnc3c(N)ncnc32)[C@H](O)[C@@H]1OP(=O)(O)O [Palmitoyl-CoA]	7.0 ± 0.1 nmol/min/(mg protein)	
CCCCCCCCCCCCCCCCCC(=O)SCCNC(=O)CCNC(=O)[C@H](O)C(C)(C)COP(=O)(O)OP(=O)(O)OC[C@H]1O[C@@H](n2cnc3c(N)ncnc32)[C@H](O)[C@@H]1OP(=O)(O)O [Stearoyl-CoA]	45 ± 3 nmol/min/(mg protein)	specific activity (rate of reduction by FcrA) ([1]; FcrA with acyl-CoA substrate): 45 ± 3 nmol/mg/min
